Earlier results, collected in US20180153872A1, “HETEROARYL CARBONITRILES FOR THE TREATMENT OF DISEASE” (OPKO Health, Inc., priority 2015, published 2018).

tested on: pruritus; conditions: several patients with pruritic drug reactions to antineoplastic drugs; cited from earlier work

SMILES | pruritus on the visual analogue scale (VAS)
C[C@@H](O[C@H]1OCCN(Cc2n[nH]c(=O)[nH]2)[C@H]1c1ccc(F)cc1)c1cc(C(F)(F)F)cc(C(F)(F)F)c1 [aprepitant] | decrease in pruritus on the visual analogue scale

molecular target: NK1 receptor (Homo sapiens, UniProt P25103); conditions: Table I compounds; cited from earlier work
Sequence (P25103 whole entry, species assumed): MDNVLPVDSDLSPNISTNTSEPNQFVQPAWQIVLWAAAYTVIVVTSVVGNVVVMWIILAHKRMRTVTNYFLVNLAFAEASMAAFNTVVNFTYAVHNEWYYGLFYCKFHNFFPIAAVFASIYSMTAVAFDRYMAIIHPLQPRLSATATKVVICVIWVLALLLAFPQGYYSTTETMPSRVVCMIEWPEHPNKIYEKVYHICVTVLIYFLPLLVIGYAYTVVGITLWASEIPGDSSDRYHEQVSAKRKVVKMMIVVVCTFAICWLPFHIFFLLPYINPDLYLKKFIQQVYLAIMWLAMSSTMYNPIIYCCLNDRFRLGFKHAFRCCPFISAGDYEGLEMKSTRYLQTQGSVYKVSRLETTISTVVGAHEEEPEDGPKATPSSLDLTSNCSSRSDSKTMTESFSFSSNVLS

SMILES | Ki [nM]
C[C@@H](OC[C@@]1(c2ccccc2)CCC(C#N)(N2CCC2=O)CN1)c1cc(C(F)(F)F)cc(C(F)(F)F)c1 (stereo partly drawn) [Compound 9] | 0.18
C[C@@H](OC[C@@]1(c2ccccc2)CCC(CO)(n2cn[nH]c2=O)CN1)c1cc(C(F)(F)F)cc(C(F)(F)F)c1 (stereo partly drawn) [Compound 23] | 0.12
CC(=NO)C1(n2cn[nH]c2=O)CCC(COC(C)c2cc(C(F)(F)F)cc(C(F)(F)F)c2)(c2ccccc2)NC1 (stereo not drawn) [Compound 54] | 0.12
C[C@@H](OC[C@@]1(c2ccccc2)CCC(C#N)(N2CCOC2=O)CN1)c1cc(C(F)(F)F)cc(C(F)(F)F)c1 (stereo partly drawn) [Compound 2] | 0.12
CCC(=O)C1(n2cn[nH]c2=O)CC[C@@](CO[C@H](C)c2cc(C(F)(F)F)cc(C(F)(F)F)c2)(c2ccccc2)NC1 (stereo partly drawn) [Compound 19] | 0.1
C[C@@H](OC[C@@]1(c2ccccc2)CCC(C(N)=O)(n2cnnc2)CN1)c1cc(C(F)(F)F)cc(C(F)(F)F)c1 (stereo partly drawn) [Compound 10] | 0.1
C[C@@H](OC[C@@]1(c2ccccc2)CCC(CO)(n2cnnc2)CN1)c1cc(C(F)(F)F)cc(C(F)(F)F)c1 (stereo partly drawn) [Compound 12] | 0.05
C[C@@H](OC[C@@]1(c2ccccc2)CC[C@](CNS(C)(=O)=O)(n2cn[nH]c2=O)CN1)c1cc(C(F)(F)F)cc(C(F)(F)F)c1 [Compound 15] | 0.13
